Assay results published in patent US20180027807A1, “Vermin Control Compositions” (priority 2013, published 2018).
Where two headings read alike, the source gives them in different places.

Legend:
[1] = Accelerated stability study of cholecalciferol in DMSO/ethanol formulations; type: physicochemical; settings: across all formulations, 25° C.±2° C./60% RH±5%
Method: The stability of cholecalciferol in the chosen penetration enhancer is an important consideration when analysing the physical properties of the formulation. An unstable formulation which causes cholecalciferol to degrade would result in delivery of sub-lethal doses. […] Conversely, cholecalciferol solutions in surfactants and oils are said to be stable over long periods at 40° C. In order to assess the stability of cholecalciferol when combined with the chosen penetration enhancers an accelerated stability study was performed. In total, 6 formulations with varying types and concentration of penetration enhancers were stored in an accelerated stability cabinet at 25° C.±2° C./60% RH±5%. Each formulation contained 10% (w/v) cholecalciferol. Each formulation was made up a day before the intended start date of the stability study and left in a water bath/shaker overnight at 25° C. to allow adequate time for the cholecalciferol to dissolve. Amber bottles were used to prevent photo-degradation and parafilm was used to seal round the screw lid to prevent oxidative degradation from the air. At each sampling point the lid was removed and 200 μl taken; the sample was serially diluted 8 times (256-fold) before analysis with HPLC.
All formulations contain 10% (w/v) cholecalciferol.

[2] = cited from earlier work
[3] = crystalline form, 7 days, cited from earlier work

C=C1CC[C@H](O)C/C1=C/C=C1\CCC[C@]2(C)[C@@H]([C@H](C)CCCC(C)C)CC[C@@H]12 [cholecalciferol]
degradation of cholecalciferol ([1]; during the first 10 days): 16.83%
degradation of cholecalciferol (drop in potency) ([1]; over 50 days, 10% (w/v) in DMSO/ethanol ratios, amber bottles): 27.11%
Solubility (class) ([2]; cholecalciferol in ethanol, classification taken from the British Pharmacopeia): freely soluble (a solubility between 1-10 ml/g is classed as freely soluble)
solubility in water ([2]; cholecalciferol in water, stated): practically insoluble
decrease in potency ([3]; 40° C./45% RH): 35%
decrease in potency ([3]; 40° C./85% RH): 85%
